Data on one compound can be found in US10987349B2, “Antitumor agent and bromodomain inhibitor” (FUJIFILM Corporation, priority 2016, dated 2021).

One experiment has as its system LNCaP. The experiment in a line: Cell growth test (Cell Titer Blue) LNCaP. Type of experiment: cell-based. The following applies: Homo sapiens, 72 h, Prostate cancer, 3 days. How it is done:
(§1) Moreover, the compound of Example 14 was subjected to a cell growth test using various types of cell lines.
(§2) All cell lines other than the below-noticed cells were each seeded in a well plate, in which an RPMI-1640 medium supplemented with penicillin/streptomycin and FBS with a final concentration of 10% was placed. The human prostate cancer cell line VCaP (ATCC) was seeded in a well plate, in which DMEM medium supplemented with penicillin/streptomycin and FBS with a final concentration of 10% was placed. […] Thereafter, using Enspire Multimode Plate Reader (PerkinElmer), the amount of fluorescence at an excitation wavelength of 531 nm and a fluorescence wavelength of 615 nm was measured. Since the amount of fluorescence is in proportion to the concentration of a florescent product resorufin that is converted from resazurin as a redox dye by living cells, the amount of fluorescence was used as an indicator of the number of living cells. The growth inhibition percentage of the test compound in each concentration was calculated according to the following equation. Growth inhibition percentage (%)=(amount of fluorescence in test compound−added well)/(amount of fluorescence in DMSO−added well)×100 […]
On the technique in general: Resazurin is reduced to fluorescent resorufin, in cell work by metabolically active cells.

The subject of a further experiment is SU-DHL-1. Kind of experiment: Cell growth test (Cell Titer Blue) SU-DHL-1. The conditions noted are these: Homo sapiens, 72 h, SU-DHL-1, Lymphoma, 3 days. In kind it is cell-based. How it is done:
as §1, §2

Another experiment concerns MOLT-4. Kind of experiment: Cell growth test (Cell Titer Blue) MOLT-4. Type of experiment: cell-based. The conditions noted are these: Homo sapiens, 72 h, MOLT-4, Acute lymphoblastic leukemia, 3 days. How it is done:
as §1, §2

A further experiment concerns KM12. Kind of experiment: Cell growth test (Cell Titer Blue) KM12. Type of experiment: cell-based. The conditions noted are these: Homo sapiens, 72 h, KM12, Colon cancer, 3 days. Here is the method: as §1, §2
For experiment [1], the system named is MV4-11 subcutaneously transplanted tumor. The experiment in a line: Medicinal effect test, MV4-11-subcutaneously-transplanted cancer-bearing mouse models, intravenous administration. In kind it is in vivo. The following applies: intravenously, once per day, 25 days, BALB/c nu/nu mice. How it is done:
T/C (%) was calculated from the average tumor volume of each group according to the following equation, and medicinal effects were then evaluated. T/C(%)=[1−(average tumor volume of drug administration group)/(average tumor volume of solvent administration group)]×100%
Moreover, using the above-described mouse models, medicinal effects obtained upon intravenous administration were evaluated.
The human acute myeloid leukemia cell line MV4-11 (ATCC) was suspended in a mixture of RPMI-1640 […] and Matrigel (Corning), and the obtained mixture was then subcutaneously transplanted into 6-week-old female BALB/c nu/nu mice (CLEA Japan, Inc.). After confirming that the average tumor volume exceeded 200 mm^3, a test compound was dissolved in a solvent (a normal saline containing 1 equivalent of hydrochloric acid), and the obtained solution was then intravenously administered to the mice at a daily dose of 10 to 30 mg/kg, once per day, for 25 days. As a negative control, a solvent administration group involving administration of a normal saline was established. The tumor diameter was measured on a daily basis, and the tumor volume was calculated. In the same manner as described above, the tumor volume and T/C (%) were calculated, and medicinal effects were then evaluated.

Another experiment has as its system MOLT-3. The experiment in a line: Cell growth test (Cell Titer Blue) MOLT-3. Type of experiment: cell-based. The conditions noted are these: Homo sapiens, 72 h, MOLT-3, Acute lymphoblastic leukemia, 3 days. How it is done:
as §1, §2

A word on the GI50: it is the concentration that inhibits growth by half. For `CCn1c(=O)cc(C2CCN(C)CC2)c2cc(C(=O)N(C)c3ccc(C)cc3)ccc21` [Example 14, 1-Ethyl-N-methyl-N-(4-methylphenyl)-4-(1-methylpiperidin-4-yl)-2-oxo-1,2-dihydroquinoline-6-carboxamide], the GI50 in the experiment with LNCaP came to 64 nM; with SU-DHL-1, 1260 nM; in the experiment on MOLT-4 it was 57 nM; in the experiment on KM12, 1490 nM; with MOLT-3, 317 nM. Moreover, the results for the “T/C (%)” value in experiment [1] (10 mg/kg) and in experiment [1] (30 mg/kg) were 66% and 78%, respectively.
